pIC50: −log10 of the molar value.
How the values were obtained:
[1] = target: T1, Avi-KRAS G12D (1-169) GppNHp/RAF1 RBD-3xFLAG (52-151) (Homo sapiens, UniProt P01116, G12D); test: Raf1-KRAS G12D-GppNHP disruption HTRF assay (Biological Example 1); format: binding
T1 construct: Avi-KRAS G12D (1-169)
Summary of the method: (§1)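 Protein mix, 1 h RT, 700 rpm; reagent mix, 1 h RT, 700 rpm; HTRF read. Buffer Tris pH 7.5/NaCl/MgCl2/BSA/Tween, 10% DMSO. Output % activity, DMSO = 100%.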

[2] = target: T2, Avi-KRAS G12R (1-169) GppNHp/RAF1 RBD-3xFLAG (52-151) (Homo sapiens, UniProt P01116, G12R); test: Raf1-KRAS G12R-GppNHP disruption HTRF assay (Biological Example 1); format: binding
T2 construct: Avi-KRAS G12R (1-169)
Summary of the method: as §1

[3] = target: T3, Avi-KRAS G12V (1-169) GppNHp/RAF1 RBD-3xFLAG (52-151) (Homo sapiens, UniProt P01116, G12V); test: Raf1-KRAS G12V-GppNHP disruption HTRF assay (Biological Example 1); format: binding
T3 construct: Avi-KRAS G12V (1-169)
Summary of the method: as §1

[4] = tested on: GP2d cells (KRAS G12D); test: Cell-based pERK HTRF assay in GP2d cell (Biological Example 2); conditions: GP2d, GP2d (KRAS G12D) cells, pERK HTRF
Summary of the method: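 Phospho-ERK in lysed cells was detected by HTRF using Eu cryptate and d2 antibodies, read between 4 and 24 h at room temperature. Prior to lysis, KRAS G12D GP2d cells, seeded the day before in DMEM with 10% FBS, were exposed to compounds for 60 min. Compounds were tested as 9-point half-log curves from 1 μM or 100 nM top, with 0.25% DMSO.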

[5] = target: T4, Avi-KRAS WT (1-169) GppNHp/RAF1 RBD-3xFLAG (52-151) (Homo sapiens, UniProt P01116); test: Raf1-KRAS WT-GppNHP disruption HTRF assay (Biological Example 1); format: binding
T4 construct: Avi-KRAS WT (1-169)
Summary of the method: as §1

[6] = tested on: SW620 cells (KRAS G12V); test: Cell-based pERK HTRF assay in SW620 cell (Biological Example 4); conditions: Homo sapiens, SW-620, SW620 (KRAS G12V) cells, pERK HTRF
Summary of the method: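 SW620 seeded in RPMI/10% FBS, next day dosed 4 h (top 1 μM, half-log, 9 pts, 0.25% DMSO). Lysed, pERK by d2/Eu cryptate HTRF, 4–24 h RT, 615 nm read.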

[7] = KRAS G12D, GppNHp-loaded, class symbols
[8] = KRAS G12R, GppNHp-loaded, class symbols
[9] = KRAS G12V, GppNHp-loaded, class symbols
[10] = KRAS WT, GppNHp-loaded, class symbols

T4 sequence (P01116 1-169 isoform P01116-2): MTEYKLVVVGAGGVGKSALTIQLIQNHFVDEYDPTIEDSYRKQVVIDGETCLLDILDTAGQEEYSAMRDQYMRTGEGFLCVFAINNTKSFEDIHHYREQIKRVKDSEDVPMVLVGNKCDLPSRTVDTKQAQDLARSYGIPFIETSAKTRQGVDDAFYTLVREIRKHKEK
T2 sequence (P01116 1-169 isoform P01116-2 G12R): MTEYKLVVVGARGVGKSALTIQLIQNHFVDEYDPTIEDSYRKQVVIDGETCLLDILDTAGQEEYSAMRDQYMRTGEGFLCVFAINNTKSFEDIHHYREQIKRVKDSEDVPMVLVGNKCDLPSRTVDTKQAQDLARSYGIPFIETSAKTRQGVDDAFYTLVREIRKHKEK
T3 sequence (P01116 1-169 isoform P01116-2 G12V): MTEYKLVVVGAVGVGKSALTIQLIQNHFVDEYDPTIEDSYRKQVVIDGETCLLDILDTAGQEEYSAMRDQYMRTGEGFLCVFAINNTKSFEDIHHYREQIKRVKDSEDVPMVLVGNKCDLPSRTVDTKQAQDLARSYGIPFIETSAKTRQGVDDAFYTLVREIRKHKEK
T1 sequence (P01116 1-169 isoform P01116-2 G12D): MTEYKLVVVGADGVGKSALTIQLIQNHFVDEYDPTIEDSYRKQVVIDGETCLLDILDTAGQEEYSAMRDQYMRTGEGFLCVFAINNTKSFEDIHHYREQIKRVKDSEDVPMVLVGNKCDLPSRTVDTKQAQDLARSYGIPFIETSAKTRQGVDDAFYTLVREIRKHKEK

pIC50 ([1]; KRAS G12D-GppNHp/RAF1 RBD HTRF)	pIC50 ([2]; KRAS G12R-GppNHp/RAF1 RBD HTRF)	pIC50 ([3]; KRAS G12V-GppNHp/RAF1 RBD HTRF)	pIC50 [4]	pIC50 ([5]; KRAS WT-GppNHp/RAF1 RBD HTRF)	pIC50 [6]	pIC50 [1, 7]	pIC50 [2, 8]	pIC50 [3, 9]	pIC50 ([4]; class symbols)	pIC50 [5, 10]	pIC50 ([6]; class symbols)	pIC50 ([1]; KRAS G12D, GppNHp-loaded, Table 11)	pIC50 ([2]; KRAS G12R, GppNHp-loaded, Table 11)	pIC50 ([3]; KRAS G12V, GppNHp-loaded, Table 11)	pIC50 ([5]; KRAS WT, GppNHp-loaded, Table 11)	Compound
> 7.00	> 7.00	> 7.00	> 7.00	> 7.00	> 7.00	–	–	–	–	–	–	–	–	–	–	CCN(c1nc(OC[C@@]23CCCN2C[C@H](F)C3)nc2c(F)c(-c3ccc(F)c4sc(N)c(C#N)c34)c(C(F)(F)F)cc12)[C@H]1CCN(C(=O)N2CCOCC2)C1 (atropisomer, axis not shown) [Compound 553]
–	–	–	–	–	–	> 7.00	> 7.00	> 7.00	> 7.00	> 7.00	> 7.00	–	–	–	–	CCN(c1nc(OC[C@@]23CCCN2C[C@H](F)C3)nc2c(F)c(-c3ccc(F)c4sc(N)c(C#N)c34)c(C(F)(F)F)cc12)[C@H]1CCN(C(=O)OC2CC(OC)C2)C1 (stereo partly drawn) [Compound 791]
–	–	–	> 7.00	–	> 7.00	–	–	–	–	–	–	6.00 to 7.00	6.00 to 7.00	6.00 to 7.00	6.00 to 7.00	N#Cc1c(N)sc2c(F)ccc(-c3c(C(F)(F)F)cc4c(N5CCS(=O)(=O)CC5)nc(OC[C@@]56CCCN5C[C@H](F)C6)nc4c3F)c12 [Compound 91]
> 7.00	> 7.00	> 7.00	> 7.00	> 7.00	> 7.00	–	–	–	–	–	–	–	–	–	–	CCN(c1nc(OC[C@@]23CCCN2C[C@H](F)C3)nc2c(F)c(-c3ccc(F)c4sc(N)c(C#N)c34)c(C(F)(F)F)cc12)[C@H]1CCN(C(=O)C2(C#N)CC2)C1 [Compound 560]
–	–	–	–	–	–	6.00 to 7.00	5.00 to 6.00	5.00 to 6.00	> 7.00	5.00 to 6.00	> 7.00	–	–	–	–	C[C@H]1Cn2nnc(C#N)c2CN1c1nc(OC[C@@]23CCCN2C[C@H](F)C3)nc2c(F)c(-c3ccc(F)c4sc(N)c(C#N)c34)c(C(F)(F)F)cc12 (atropisomer, axis not shown) [Compound 625]
–	–	–	–	–	–	5.00 to 6.00	5.00 to 6.00	5.00 to 6.00	6.00 to 7.00	6.00 to 7.00	6.00 to 7.00	–	–	–	–	CCN(c1nc(OC[C@@]23CCCN2C[C@H](F)C3)nc2c(F)c(-c3ccc(F)c4sc(N)c(C#N)c34)c(C(F)(F)F)cc12)[C@H]1CCN(C(=O)OC)[C@H]1C (atropisomer, axis not shown) [Compound 799]
–	–	–	–	–	–	> 7.00	> 7.00	> 7.00	> 7.00	> 7.00	> 7.00	–	–	–	–	CCN(c1nc(OC[C@@]23CCCN2C[C@H](F)C3)nc2c(F)c(-c3ccc(F)c4sc(N)c(C#N)c34)c(C(F)(F)F)cc12)[C@H]1CCN(C(=O)N2CC(F)C2)[C@@H]1C (atropisomer, axis not shown) [Compound 780]
–	–	–	–	–	–	> 7.00	> 7.00	> 7.00	> 7.00	> 7.00	> 7.00	–	–	–	–	CCN(c1nc(OC[C@@]23CCCN2C[C@H](F)C3)nc2c(F)c(-c3ccc(F)c4sc(N)c(C#N)c34)c(C(F)(F)F)cc12)[C@H]1CCN(C(=O)[C@H]2CCCO2)C1 (atropisomer, axis not shown) [Compound 735]
–	–	–	–	–	–	6.00 to 7.00	6.00 to 7.00	6.00 to 7.00	> 7.00	6.00 to 7.00	> 7.00	–	–	–	–	CCN(c1nc(OC[C@@]23CCCN2C[C@H](F)C3)nc2c(F)c(-c3ccc(F)c4sc(N)c(C#N)c34)c(C(F)(F)F)cc12)[C@H]1C[C@@H](COC)N(C(C)=O)C1 (atropisomer, axis not shown) [Compound 632]
–	–	–	–	–	–	6.00 to 7.00	6.00 to 7.00	6.00 to 7.00	> 7.00	6.00 to 7.00	> 7.00	–	–	–	–	CCN(CC)C(=O)c1nn2c(c1C)CN(c1nc(OCC34CCCN3CC(F)C4)nc3c(F)c(-c4ccc(F)c5sc(N)c(C#N)c45)c(C(F)(F)F)cc13)CC2 (stereo not drawn) [Compound 740]
6.00 to 7.00	6.00 to 7.00	6.00 to 7.00	> 7.00	6.00 to 7.00	> 7.00	–	–	–	–	–	–	–	–	–	–	CCN(c1nc(OC[C@@]23CCCN2C[C@H](F)C3)nc2c(F)c(-c3ccc(F)c4sc(N)c(C#N)c34)c(C(F)(F)F)cc12)[C@@H]1C[C@@H](C)N(C(=O)OC)C1 (atropisomer, axis not shown) [Compound 526]

From patent US20260042764A1, “COMPOSITIONS AND METHODS FOR INHIBITION OF KRAS” (TheRas, Inc., priority 2022, published 2026)
